Laboratory results: patent publication US12428408B2, “Fused heterocyclic mescaline derivatives” (Enveric Biosciences Canada Inc., priority 2022, dated 2025)
Like-named read-outs stand apart in the source and are kept apart here.

Key:
MT1 (ML1A) (h) = target: T1, MT1 (ML1A) (h) (Homo sapiens, UniProt P48039); assay: Competition assay to measure binding affinity at MT1 receptor; conditions: test ligand 10 μM; [125I]2-iodomelatonin 0.01 nM
T1 construct: host or cells: CHO cells

5-HT1B (h) = target: T2, 5-HT1B (h) (Homo sapiens, UniProt P28222); assay: Competition assay to measure binding affinity at 5-HT1B receptor; conditions: test ligand 10 μM; [3H]GR125743 1 nM
T2 construct: host or cells: Chem-1 (RBL) cells
T2 sequence (P28222 whole entry): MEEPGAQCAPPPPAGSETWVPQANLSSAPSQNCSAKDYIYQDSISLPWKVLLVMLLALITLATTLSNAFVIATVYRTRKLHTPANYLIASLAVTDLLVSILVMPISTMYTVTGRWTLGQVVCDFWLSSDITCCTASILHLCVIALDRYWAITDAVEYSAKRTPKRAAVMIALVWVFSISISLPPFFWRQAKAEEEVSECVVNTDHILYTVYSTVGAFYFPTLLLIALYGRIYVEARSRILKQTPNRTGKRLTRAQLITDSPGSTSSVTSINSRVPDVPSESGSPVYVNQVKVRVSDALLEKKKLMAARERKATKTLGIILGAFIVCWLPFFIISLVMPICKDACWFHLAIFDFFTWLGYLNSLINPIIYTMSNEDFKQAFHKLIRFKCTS

D2 (h) = target: T3, D2 (h) (Homo sapiens, UniProt P14416); assay: Competition assay to measure binding affinity at D2L receptor; conditions: test ligand 10 μM; [3H]methylspiperone 0.3 nM
T3 construct: host or cells: HEK-293 cells
T3 sequence (P14416 whole entry): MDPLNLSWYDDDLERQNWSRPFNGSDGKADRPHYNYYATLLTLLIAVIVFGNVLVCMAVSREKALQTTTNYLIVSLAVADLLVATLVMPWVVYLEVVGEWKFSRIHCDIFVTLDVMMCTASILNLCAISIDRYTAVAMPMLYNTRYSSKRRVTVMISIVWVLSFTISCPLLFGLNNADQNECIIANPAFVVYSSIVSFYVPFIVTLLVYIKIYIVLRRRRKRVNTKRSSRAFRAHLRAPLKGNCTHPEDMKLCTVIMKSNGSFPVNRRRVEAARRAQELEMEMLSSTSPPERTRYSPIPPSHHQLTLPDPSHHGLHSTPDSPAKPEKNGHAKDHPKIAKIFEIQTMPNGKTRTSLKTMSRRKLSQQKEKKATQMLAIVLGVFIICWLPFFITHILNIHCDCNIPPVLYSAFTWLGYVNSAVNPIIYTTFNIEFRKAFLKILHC

5-HT1A receptor = target: T4, 5-HT1A receptor (Homo sapiens, UniProt P08908); assay: 5-HT1A receptor radioligand competition assay (SPA); assay type: binding
T4 construct: purchased Perkin Elmer 6110501400UA
T4 sequence (P08908 1-422): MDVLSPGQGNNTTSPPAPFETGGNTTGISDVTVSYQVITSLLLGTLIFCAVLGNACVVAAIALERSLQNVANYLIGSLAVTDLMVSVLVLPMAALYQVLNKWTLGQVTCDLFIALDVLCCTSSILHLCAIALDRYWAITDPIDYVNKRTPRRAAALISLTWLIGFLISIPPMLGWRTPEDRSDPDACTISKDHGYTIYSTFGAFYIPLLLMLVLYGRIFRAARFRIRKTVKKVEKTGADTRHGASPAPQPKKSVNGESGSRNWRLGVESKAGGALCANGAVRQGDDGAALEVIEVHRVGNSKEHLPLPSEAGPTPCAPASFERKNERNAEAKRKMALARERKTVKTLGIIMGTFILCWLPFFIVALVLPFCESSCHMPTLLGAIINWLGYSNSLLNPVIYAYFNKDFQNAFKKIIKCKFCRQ

5-HT2A receptor = 5-HT2A receptor (Homo sapiens, UniProt P28223); assay: 5-HT2A receptor radioligand competition assay (SPA)
5-HT2C (h) = target: T5, 5-HT2C (h) (Homo sapiens, UniProt P28335); assay: Competition assay to measure binding affinity at 5-HT2C receptor; conditions: test ligand 10 μM; [125I](±)DOI 0.1 nM
T5 construct: host or cells: HEK-293 cells
T5 sequence (P28335 33-458): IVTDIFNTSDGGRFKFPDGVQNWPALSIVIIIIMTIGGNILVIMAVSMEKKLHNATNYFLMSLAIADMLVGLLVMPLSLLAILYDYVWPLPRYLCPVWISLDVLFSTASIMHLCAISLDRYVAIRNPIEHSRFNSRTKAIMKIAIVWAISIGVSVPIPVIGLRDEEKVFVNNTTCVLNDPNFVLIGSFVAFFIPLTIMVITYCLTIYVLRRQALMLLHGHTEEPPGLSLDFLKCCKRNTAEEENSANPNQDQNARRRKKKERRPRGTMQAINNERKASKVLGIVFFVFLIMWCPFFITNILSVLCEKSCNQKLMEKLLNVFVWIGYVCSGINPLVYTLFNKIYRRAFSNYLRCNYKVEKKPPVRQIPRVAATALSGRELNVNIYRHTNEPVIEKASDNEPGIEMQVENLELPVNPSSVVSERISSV

5-HT7 (h) = target: T6, 5-HT7 (h) (Homo sapiens, UniProt P34969); assay: Competition assay to measure binding affinity at 5-HT7 receptor; conditions: test ligand 10 μM; [3H]LSD 4 nM
T6 construct: host or cells: HEK-293 cells
T6 sequence (P34969 whole entry): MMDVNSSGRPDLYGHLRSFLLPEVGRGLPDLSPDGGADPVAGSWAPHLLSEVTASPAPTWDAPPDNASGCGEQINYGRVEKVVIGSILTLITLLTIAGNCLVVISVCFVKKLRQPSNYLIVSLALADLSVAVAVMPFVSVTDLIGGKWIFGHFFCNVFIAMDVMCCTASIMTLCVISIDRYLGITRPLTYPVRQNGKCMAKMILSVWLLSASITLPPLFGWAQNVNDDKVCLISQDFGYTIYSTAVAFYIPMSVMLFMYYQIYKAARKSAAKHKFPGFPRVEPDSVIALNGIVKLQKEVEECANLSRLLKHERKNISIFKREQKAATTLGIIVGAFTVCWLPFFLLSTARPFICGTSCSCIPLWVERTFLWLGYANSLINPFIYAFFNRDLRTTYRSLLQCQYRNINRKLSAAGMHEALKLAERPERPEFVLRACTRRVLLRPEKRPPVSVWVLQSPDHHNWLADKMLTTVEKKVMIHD

DAT (h) = target: T7, DAT (h) (Homo sapiens, UniProt Q01959); assay: Competition assay to measure binding affinity at dopamine transporter (DAT); conditions: test ligand 10 μM; [3H]BTCP 4 nM
T7 construct: host or cells: CHO cells
T7 sequence (Q01959 whole entry): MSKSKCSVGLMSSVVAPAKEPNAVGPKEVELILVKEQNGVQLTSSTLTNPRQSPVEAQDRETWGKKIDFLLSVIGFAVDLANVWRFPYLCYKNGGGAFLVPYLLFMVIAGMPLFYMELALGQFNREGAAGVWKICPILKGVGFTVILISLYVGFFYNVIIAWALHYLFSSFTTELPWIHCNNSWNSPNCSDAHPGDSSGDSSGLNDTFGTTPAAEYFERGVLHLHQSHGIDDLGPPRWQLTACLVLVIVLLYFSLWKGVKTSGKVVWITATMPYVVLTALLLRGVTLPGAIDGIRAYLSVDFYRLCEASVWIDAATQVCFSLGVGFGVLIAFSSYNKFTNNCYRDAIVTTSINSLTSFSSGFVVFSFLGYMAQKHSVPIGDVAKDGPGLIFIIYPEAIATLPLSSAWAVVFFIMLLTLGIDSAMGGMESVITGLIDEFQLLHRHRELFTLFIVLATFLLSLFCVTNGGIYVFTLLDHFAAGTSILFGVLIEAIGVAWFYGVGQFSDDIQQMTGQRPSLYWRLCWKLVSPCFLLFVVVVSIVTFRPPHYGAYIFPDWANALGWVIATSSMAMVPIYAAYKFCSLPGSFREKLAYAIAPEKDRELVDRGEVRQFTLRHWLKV

alpha2A (h) = target: T8, alpha2A (h) (Homo sapiens, UniProt P08913); assay: Competition assay to measure binding affinity at alpha2A receptor; conditions: test ligand 10 μM; [3H]RX 821002 1 nM; read-out: α-2A, percent of control-specific binding
T8 construct: host or cells: CHO cells
T8 sequence (P08913 1-465): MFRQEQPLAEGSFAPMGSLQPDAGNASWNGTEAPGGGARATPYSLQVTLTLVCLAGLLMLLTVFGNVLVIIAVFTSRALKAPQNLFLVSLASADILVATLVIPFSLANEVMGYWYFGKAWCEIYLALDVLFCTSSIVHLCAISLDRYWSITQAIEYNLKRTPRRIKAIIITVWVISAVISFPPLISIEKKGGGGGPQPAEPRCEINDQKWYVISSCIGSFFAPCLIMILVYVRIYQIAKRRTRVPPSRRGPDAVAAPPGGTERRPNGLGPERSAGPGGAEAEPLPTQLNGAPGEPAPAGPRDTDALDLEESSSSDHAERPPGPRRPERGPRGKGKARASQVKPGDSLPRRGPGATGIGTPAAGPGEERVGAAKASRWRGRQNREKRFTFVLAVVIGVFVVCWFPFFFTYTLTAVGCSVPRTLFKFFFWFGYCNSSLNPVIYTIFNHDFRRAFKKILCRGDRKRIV

5-HT1D (r) = target: T9, 5-HT1D (r) (Rattus norvegicus, UniProt P28565); assay: Competition assay to measure binding affinity at 5-HT1D receptor; conditions: test ligand 10 μM; [3H]serotonin 1 nM
T9 construct: host or cells: CHO cells
T9 sequence (P28565 whole entry): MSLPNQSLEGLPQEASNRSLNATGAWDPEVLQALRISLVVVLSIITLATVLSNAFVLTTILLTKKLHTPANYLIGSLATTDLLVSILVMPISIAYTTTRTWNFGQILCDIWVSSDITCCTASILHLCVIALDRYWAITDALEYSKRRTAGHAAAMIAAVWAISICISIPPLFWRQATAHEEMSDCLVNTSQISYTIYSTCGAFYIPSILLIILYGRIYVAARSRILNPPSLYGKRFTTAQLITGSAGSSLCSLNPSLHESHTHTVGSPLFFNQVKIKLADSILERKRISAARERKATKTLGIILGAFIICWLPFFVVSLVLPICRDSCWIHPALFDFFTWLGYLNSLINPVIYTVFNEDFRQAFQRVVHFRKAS

D3 (h) = target: T10, D3 (h) (Homo sapiens, UniProt P35462); assay: Competition assay to measure binding affinity at D3 receptor; conditions: test ligand 10 μM; [3H]methylspiperone […]
T10 construct: host or cells: CHO cells
T10 sequence (P35462 whole entry): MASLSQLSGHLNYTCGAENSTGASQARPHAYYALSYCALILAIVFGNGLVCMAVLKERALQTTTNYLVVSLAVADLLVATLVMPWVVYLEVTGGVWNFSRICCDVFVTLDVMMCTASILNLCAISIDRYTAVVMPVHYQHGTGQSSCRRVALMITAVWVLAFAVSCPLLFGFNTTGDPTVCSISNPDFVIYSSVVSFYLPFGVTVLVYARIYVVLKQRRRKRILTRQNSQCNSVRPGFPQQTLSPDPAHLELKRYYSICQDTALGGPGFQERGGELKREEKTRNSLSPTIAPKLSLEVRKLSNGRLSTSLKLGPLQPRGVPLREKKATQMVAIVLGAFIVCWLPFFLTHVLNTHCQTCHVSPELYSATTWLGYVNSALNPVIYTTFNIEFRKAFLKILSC

5-HT2B (h) = target: T11, 5-HT2B (h) (Homo sapiens, UniProt P41595); assay: Competition assay to measure binding affinity at 5-HT2B receptor; conditions: test ligand 10 μM; [3H]mesulergine 2 nM
T11 construct: host or cells: CHO cells
T11 sequence (P41595 whole entry): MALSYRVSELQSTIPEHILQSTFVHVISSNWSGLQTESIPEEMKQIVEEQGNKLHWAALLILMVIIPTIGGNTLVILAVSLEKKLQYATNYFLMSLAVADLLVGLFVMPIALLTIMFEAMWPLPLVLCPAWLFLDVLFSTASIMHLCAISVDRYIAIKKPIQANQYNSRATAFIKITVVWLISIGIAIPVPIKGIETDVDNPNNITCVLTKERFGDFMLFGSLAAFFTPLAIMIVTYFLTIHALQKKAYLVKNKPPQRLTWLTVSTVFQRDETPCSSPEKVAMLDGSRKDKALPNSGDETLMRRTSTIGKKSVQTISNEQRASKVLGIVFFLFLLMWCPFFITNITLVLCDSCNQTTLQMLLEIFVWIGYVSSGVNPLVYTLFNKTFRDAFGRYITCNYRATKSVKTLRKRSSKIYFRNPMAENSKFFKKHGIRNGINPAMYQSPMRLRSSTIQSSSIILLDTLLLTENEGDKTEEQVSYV

[1] = target: T12, human serotonin transporter (SERT) (Homo sapiens, UniProt P31645); assay: biochemical; assay type: binding
T12 construct: purchased PerkinElmer RBHSTM400UA
T12 sequence (P31645 whole entry): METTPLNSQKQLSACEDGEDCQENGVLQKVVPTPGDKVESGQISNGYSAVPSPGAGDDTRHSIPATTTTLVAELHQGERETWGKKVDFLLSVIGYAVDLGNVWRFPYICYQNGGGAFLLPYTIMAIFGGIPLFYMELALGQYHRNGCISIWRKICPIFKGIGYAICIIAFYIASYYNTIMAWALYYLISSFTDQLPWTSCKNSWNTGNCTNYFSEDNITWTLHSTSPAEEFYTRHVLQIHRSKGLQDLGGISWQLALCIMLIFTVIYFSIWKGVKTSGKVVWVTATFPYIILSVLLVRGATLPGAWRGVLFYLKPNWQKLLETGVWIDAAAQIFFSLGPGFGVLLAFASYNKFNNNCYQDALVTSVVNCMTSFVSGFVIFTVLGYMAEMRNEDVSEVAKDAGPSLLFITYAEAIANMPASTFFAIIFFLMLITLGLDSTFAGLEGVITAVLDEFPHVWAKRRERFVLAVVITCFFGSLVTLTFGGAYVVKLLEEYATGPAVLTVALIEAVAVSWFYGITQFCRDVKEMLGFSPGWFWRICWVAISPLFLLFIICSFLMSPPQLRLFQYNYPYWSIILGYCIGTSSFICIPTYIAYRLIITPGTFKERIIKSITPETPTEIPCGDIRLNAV

NET (h) = target: T13, NET (h) (Homo sapiens, UniProt P23975); assay: Competition assay to measure binding affinity at norepinephrine transporter (NET); conditions: test ligand 10 μM; [3H]nisoxetine 1 nM
T13 construct: host or cells: CHO cells
T13 sequence (P23975 whole entry): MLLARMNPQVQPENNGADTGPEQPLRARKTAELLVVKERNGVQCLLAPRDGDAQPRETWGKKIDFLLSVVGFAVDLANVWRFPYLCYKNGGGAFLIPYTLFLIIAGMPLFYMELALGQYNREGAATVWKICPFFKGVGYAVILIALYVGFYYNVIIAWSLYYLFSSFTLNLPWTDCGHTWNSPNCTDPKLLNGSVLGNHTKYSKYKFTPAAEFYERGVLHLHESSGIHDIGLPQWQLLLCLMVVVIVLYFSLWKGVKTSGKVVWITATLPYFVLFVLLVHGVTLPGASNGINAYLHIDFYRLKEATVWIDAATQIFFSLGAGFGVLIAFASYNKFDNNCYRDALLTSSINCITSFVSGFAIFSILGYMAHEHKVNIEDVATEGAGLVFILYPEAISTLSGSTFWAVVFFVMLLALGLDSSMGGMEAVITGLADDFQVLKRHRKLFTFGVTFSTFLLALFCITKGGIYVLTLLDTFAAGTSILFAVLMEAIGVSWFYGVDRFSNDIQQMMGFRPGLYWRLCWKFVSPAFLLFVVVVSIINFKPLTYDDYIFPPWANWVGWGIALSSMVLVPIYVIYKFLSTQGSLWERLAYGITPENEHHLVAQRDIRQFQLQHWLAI

[2] = competition with 0.5 nM 8-hydroxy-DPAT [3H], test compound 3 nM to 1 mM, read-out: 5-HT1A, Ki

T1 sequence (P48039 whole entry): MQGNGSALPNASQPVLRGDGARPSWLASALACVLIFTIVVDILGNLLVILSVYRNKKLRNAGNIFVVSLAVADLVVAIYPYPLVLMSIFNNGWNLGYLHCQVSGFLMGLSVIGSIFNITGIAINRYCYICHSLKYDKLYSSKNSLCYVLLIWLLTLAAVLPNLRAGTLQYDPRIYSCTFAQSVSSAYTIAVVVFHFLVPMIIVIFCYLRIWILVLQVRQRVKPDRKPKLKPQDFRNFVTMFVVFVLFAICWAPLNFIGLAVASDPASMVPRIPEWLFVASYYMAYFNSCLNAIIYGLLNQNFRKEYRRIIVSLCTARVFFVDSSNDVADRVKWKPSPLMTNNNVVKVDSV

SMILES	MT1, percent of control-specific binding (MT1 (ML1A) (h)) [%]	HT1B, percent of control-specific binding (5-HT1B (h)) [%]	D2, percent of control-specific binding (D2 (h)) [%]	Ki (5-HT1A receptor) [µM]	Ki (5-HT2A receptor) [µM]	HT2C, percent of control-specific binding (5-HT2C (h)) [%]	HT7, percent of control-specific binding (5-HT7 (h)) [%]	DAT, percent of control-specific binding (DAT (h)) [%]	inhibition at 10 µM (alpha2A (h)) [%]	HT1D, percent of control-specific binding (5-HT1D (r)) [%]	D3, percent of control-specific binding (D3 (h)) [%]	HT2B, percent of control-specific binding (5-HT2B (h)) [%]	Ki [1] [µM]	NET, percent of control-specific binding (NET (h)) [%]	Ki (5-HT1A receptor; [2]) [µM]	SERT binding, binding curve in words [1]
CC(Cc1ccc2c(c1)OCO2)N1CCOCC1 (centres unmarked) [A(III)]	0	0	12	38.6	42	3	3	9	32	0	9	13	26.3	0	–	–
CC(Cc1ccc2c(c1)OCO2)N1CCC1 (centres unmarked) [A(II)]	3	17	13	0.926	13	94	59	86	60	43	56	84	1.87	77	–	–
CC(Cc1ccc2c(c1)OCCO2)NCc1ccc2c(c1)OCO2 (centres unmarked) [A(XII)]	6	0	26	1.2	26	31	51	92	66	24	58	86	2.39	69	–	–
COc1cc2c(cc1CNC(C)Cc1ccc3c(c1)OCO3)OCO2 (centres unmarked) [A(V)]	23	0	19	1.88	19	90	68	84	74	0	23	92	1.28	83	–	–
COc1cc2c(cc1CC(=O)N1CCCC1)OCO2 [A(XXI)]	7	0	0	–	338	32	20	29	0	14	7	33	847	0	71.3	–
N#CC(Cc1ccc2c(c1)OCO2)NC1CCC1 (centres unmarked) [A(XX)]	14	0	24	–	42.1	41	26	39	3	14	0	53	286	1	123	–
CC(Cc1ccc2c(c1)OCO2)N1CC(NC(=O)OC(C)(C)C)C1 (centres unmarked) [A(IV)]	3	15	37	–	15	69	79	20	75	13	84	94	49.8	15	1.6	–
CC(Cc1ccc2c(c1)OCO2)NCc1cc2c(cc1Br)OCO2 (centres unmarked) [A(VI)]	20	0	39	1.52	5.3	97	67	79	74	47	42	99	0.475	55	–	binds SERT
